Columns and labels:
His6-TEV-PPARγ-(234-505) = target: T1, His6-TEV-PPARγ-(234-505) (Homo sapiens, UniProt P37231); assay: TR-FRET Assay to Measure Co-R Peptide Recruitment to PPARγ; assay type: biochemical; details: Co-R peptide (SMRT-ID2) recruitment; top final concentration 20 μM; read-out: TR-FRET i-Ag; AC50
T1 construct: The His6-TEV-PPARγ-(234-505) protein for assay was expressed and purified; TEV cleavage site (N); made in house
T1 sequence (P37231 234-505): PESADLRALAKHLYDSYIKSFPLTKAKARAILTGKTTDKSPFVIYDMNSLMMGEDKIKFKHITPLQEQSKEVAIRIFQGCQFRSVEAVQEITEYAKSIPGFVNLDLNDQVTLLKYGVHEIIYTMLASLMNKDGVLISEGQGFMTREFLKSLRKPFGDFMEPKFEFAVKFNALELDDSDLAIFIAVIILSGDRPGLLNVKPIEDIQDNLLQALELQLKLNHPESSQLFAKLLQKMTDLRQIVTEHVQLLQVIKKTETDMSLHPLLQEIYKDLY
Outline: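 His-tagged PPARγ (or controls) was preincubated with compound for 20 minutes at room temperature, then 5 nM anti-His terbium antibody and 200 nM FITC-labeled SMRT-ID2 corepressor peptide (final) were added for a further hour. TR-FRET signal was normalized to percent response using 500 nM T0070907 and DMSO controls.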

UM-UC-9 engineered cells = assay: Cell proliferation / short-term viability assay, CellTiter-Glo 144 h; assay type: cell-based, human; details: Homo sapiens, UM-UC-9, 144 h, read-out: CTGlo 144 h UMUC9.5, G150
Outline: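 UM-UC-9 engineered assay-ready cells seeded at 500 cells/well in high-glucose DMEM/10% FBS, treated from dose-response plates, grown at 37° C, 5% CO2. CellTiter-Glo 2.0 luminescence read on day 7, with a day-0 pretreatment plate as T0 reference and DMSO wells as negative control.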

| Structure (SMILES) | AC50 (His6-TEV-PPARγ-(234-505)) | IC50 (UM-UC-9 engineered cells) |
| --- | --- | --- |
| COc1cc(-c2cc(C(=O)N3CC[C@H](C(=O)NCc4ncc(C5COC5)cc4Cl)CC34CC4)n[nH]2)c(F)cn1 [Example 392, (S)—N-((3-chloro-5-(oxetan-3-yl)pyridin-2-yl)methyl)-4-(5-(5-fluoro-2-methoxypyridin-4-yl)-1H-pyrazole-3-carbonyl)-4-azaspiro[2.5]octane-7-carboxamide] | 9.1 nM | 45.2 nM |
| COc1cc(-c2cc(C(=O)N3CC[C@H](C(=O)NCc4ncc(N5CC(C#N)C5)cc4Cl)CC34CC4)n[nH]2)c(F)cn1 [Example 393, (S)—N-((3-chloro-5-(3-cyanoazetidin-1-yl)pyridin-2-yl)methyl)-4-(5-(5-fluoro-2-methoxypyridin-4-yl)-1H-pyrazole-3-carbonyl)-4-azaspiro[2.5]octane-7-carboxamide] | 9.2 nM | 106 nM |
| COc1cc(-c2cc(C(=O)N3CC[C@H](C(=O)NCc4nc(C)oc4C(F)(F)F)CC34CC4)n[nH]2)c(F)cn1 [Example 394, (S)-4-(5-(5-fluoro-2-methoxypyridin-4-yl)-1H-pyrazole-3-carbonyl)-N-((2-methyl-5-(trifluoromethyl)oxazol-4-yl)methyl)-4-azaspiro[2.5]octane-7-carboxamide] | 8.7 nM | 24.5 nM |
| COc1cc(-c2cc(C(=O)N3CC[C@H](C(=O)NCc4nccnc4C)CC34CC4)n[nH]2)c(F)cn1 [Example 397, (S)-4-(5-(5-fluoro-2-methoxypyridin-4-yl)-1H-pyrazole-3-carbonyl)-N-((3-methylpyrazin-2-yl)methyl)-4-azaspiro[2.5]octane-7-carboxamide] | 23.4 nM | 59.9 nM |
| COc1cc(-c2cc(C(=O)N3CC[C@H](C(=O)NCc4ncc(F)cc4F)CC34CC4)n[nH]2)c(F)cn1 [Example 400, (S)—N-((3,5-difluoropyridin-2-yl)methyl)-4-(5-(5-fluoro-2-methoxypyridin-4-yl)-1H-pyrazole-3-carbonyl)-4-azaspiro[2.5]octane-7-carboxamide] | 12.6 nM | 24.3 nM |
| COc1cnc(CNC(=O)[C@H]2CCN(C(=O)c3cc(-c4cc(OC)ncc4F)[nH]n3)C3(CC3)C2)c(Cl)c1 [Example 402, (S)—N((3-chloro-5-methoxypyridin-2-yl)methyl)-4-(5-(5-fluoro-2-methoxypyridin-4-yl)-1H-pyrazole-3-carbonyl)-4-azaspiro[2.5]octane-7-carboxamide] | 10.8 nM | 2.9 nM |
| COc1cc(-c2cc(C(=O)N3CC[C@H](C(=O)NCc4ncc(F)cc4N4CCN(C)CC4)CC34CC4)n[nH]2)c(F)cn1 [Example 404, (S)-4-(5-(5-fluoro-2-methoxypyridin-4-yl)-1H-pyrazole-3-carbonyl)-N-((5-fluoro-3-(4-methylpiperazin-1-yl)pyridin-2-yl)methyl)-4-azaspiro[2.5]octane-7-carboxamide] | 164 nM | 887 nM |
| COc1cc(-c2cc(C(=O)N3CC[C@H](C(=O)NC4CN(CC5(F)CC5)C4)CC34CC4)n[nH]2)c(F)cn1 [Example 406, (S)-4-(5-(5-fluoro-2-methoxypyridin-4-yl)-1H-pyrazole-3-carbonyl)-N-(1-((1-fluorocyclopropyl)methyl)azetidin-3-yl)-4-azaspiro[2.5]octane-7-carboxamide] | 34.1 nM | 73.3 nM |
| COc1cc(-c2cc(C(=O)N3CC[C@H](C(=O)NC4CCC5(CC4)N([S+]([O-])C(C)(C)C)CC5(F)F)CC34CC4)n[nH]2)c(F)cn1 (stereo partly drawn) [Example 409, (7S)—N-(1-(tert-butylsulfinyl)-3,3-difluoro-1-azaspiro[3.5]nonan-7-yl)-4-(5-(5-fluoro-2-methoxypyridin-4-yl)-1H-pyrazole-3-carbonyl)-4-azaspiro[2.5]octane-7-carboxamide] | 30.9 nM | 39.1 nM |
| COc1cc(-c2cc(C(=O)N3CC[C@H](C(=O)NCc4nnc(C)cc4C)CC34CC4)n[nH]2)c(F)cn1 [Example 412, (S)—N-((4,6-dimethylpyridazin-3-yl)methyl)-4-(5-(5-fluoro-2-methoxypyridin-4-yl)-1H-pyrazole-3-carbonyl)-4-azaspiro[2.5]octane-7-carboxamide] | 79.2 nM | 198 nM |
| COc1cc(-c2cc(C(=O)N3CC[C@@H](C(=O)NCc4ncc(Cl)cn4)CC34CC4)n[nH]2)c(F)cn1 [Example 413, (R)—N-((5-chloropyrimidin-2-yl)methyl)-4-(5-(5-fluoro-2-methoxypyridin-4-yl)-1H-pyrazole-3-carbonyl)-4-azaspiro[2.5]octane-7-carboxamide] | 15.2 nM | 55 nM |
| COc1cc(-c2cc(C(=O)N3CC[C@H](C(=O)NCc4cccc5ccnn45)CC34CC4)n[nH]2)c(F)cn1 [Example 416, (S)-4-(5-(5-fluoro-2-methoxypyridin-4-yl)-1H-pyrazole-3-carbonyl)-N-(pyrazolo[1,5-a]pyridin-7-ylmethyl)-4-azaspiro[2.5]octane-7-carboxamide] | 6.1 nM | 7.4 nM |
| COc1cc(-c2cc(C(=O)N3CC[C@H](C(=O)NC4CCN(C5COC5)CC4)CC34CC4)n[nH]2)c(F)cn1 [Example 417, (S)-4-(5-(5-fluoro-2-methoxypyridin-4-yl)-1H-pyrazole-3-carbonyl)-N-(1-(oxetan-3-yl)piperidin-4-yl)-4-azaspiro[2.5]octane-7-carboxamide] | 681 nM | 1160 nM |
| COc1cc(-c2cc(C(=O)N3CCC(C(=O)NC4CC5COCC(C4)N5C)CC34CC4)n[nH]2)c(F)cn1 (centres unmarked) [Example 419-A] | 359 nM | 854 nM |
| COc1cc(-c2cc(C(=O)N3CC[C@H](C(=O)NC4CCN(S(C)(=O)=O)CC4)CC34CC4)n[nH]2)c(F)cn1 [Example 420, (S)-4-(5-(5-fluoro-2-methoxypyridin-4-yl)-1H-pyrazole-3-carbonyl)-N-(1-(methylsulfonyl)piperidin-4-yl)-4-azaspiro[2.5]octane-7-carboxamide] | 231 nM | 1370 nM |
| COc1cc(-c2cc(C(=O)N3CC[C@H](C(=O)N[C@@H]4CN(c5ccc(C)nc5)C[C@H]4F)CC34CC4)n[nH]2)c(F)cn1 [Example 426, (S)—N-((3R,4R)-4-fluoro-1-(6-methylpyridin-3-yl)pyrrolidin-3-yl)-4-(5-(5-fluoro-2-methoxypyridin-4-yl)-1H-pyrazole-3-carbonyl)-4-azaspiro[2.5]octane-7-carboxamide] | 24 nM | 50.9 nM |
| COc1cc(-c2cc(C(=O)N3CC[C@H](C(=O)N[C@H]4CN(c5ccc(C)nc5)C[C@@H]4F)CC34CC4)n[nH]2)c(F)cn1 [Example 427, (S)—N-((3S,4S)-4-fluoro-1-(6-methylpyridin-3-yl)pyrrolidin-3-yl)-4-(5-(5-fluoro-2-methoxypyridin-4-yl)-1H-pyrazole-3-carbonyl)-4-azaspiro[2.5]octane-7-carboxamide] | 10.5 nM | 4.2 nM |
| COc1cc(-c2cc(C(=O)N3CC[C@H](C(=O)N[C@H]4CN(c5ccc(C)nc5)C[C@H]4F)CC34CC4)n[nH]2)c(F)cn1 [Example 428, (S)—N-((3S,4R)-4-fluoro-1-(6-methylpyridin-3-yl)pyrrolidin-3-yl)-4-(5-(5-fluoro-2-methoxypyridin-4-yl)-1H-pyrazole-3-carbonyl)-4-azaspiro[2.5]octane-7-carboxamide] | 54.7 nM | 141 nM |
| COc1cc(-c2cc(C(=O)N3CC[C@H](C(=O)NC4C5CN(C6COC6)CC54)CC34CC4)n[nH]2)c(F)cn1 (stereo partly drawn) [Example 429, (7S)-4-(5-(5-fluoro-2-methoxypyridin-4-yl)-1H-pyrazole-3-carbonyl)-N-(3-(oxetan-3-yl)-3-azabicyclo[3.1.0]hexan-6-yl)-4-azaspiro[2.5]octane-7-carboxamide] | 347 nM | 1040 nM |
| COc1cc(-c2cc(C(=O)N3CC[C@H](C(=O)Nc4cnn5ccc(Cl)nc45)CC34CC4)n[nH]2)c(F)cn1 [Example 430, (S)—N-(5-chloropyrazolo[1,5-a]pyrimidin-3-yl)-4-(5-(5-fluoro-2-methoxypyridin-4-yl)-1H-pyrazole-3-carbonyl)-4-azaspiro[2.5]octane-7-carboxamide] | 5 nM | 8.4 nM |
| COc1cc(-c2cc(C(=O)N3CC[C@H](C(=O)NCc4nccnc4C(F)(F)F)CC34CC4)n[nH]2)c(F)cn1 [Example 432, (S)-4-(5-(5-fluoro-2-methoxypyridin-4-yl)-1H-pyrazole-3-carbonyl)-N-((3-(trifluoromethyl)pyrazin-2-yl)methyl)-4-azaspiro[2.5]octane-7-carboxamide] | 4.1 nM | 9.1 nM |
| COc1cc(-c2cc(C(=O)N3CC[C@H](C(=O)NCc4ncc(N5CC(C)NC(C)C5)cc4Cl)CC34CC4)n[nH]2)c(F)cn1 (stereo partly drawn) [Example 434, (7S)—N-((3-chloro-5-(3,5-dimethylpiperazin-1-yl)pyridin-2-yl)methyl)-4-(5-(5-fluoro-2-methoxypyridin-4-yl)-1H-pyrazole-3-carbonyl)-4-azaspiro[2.5]octane-7-carboxamide] | 11.9 nM | 45.3 nM |
